Assay results published in US6852685B1, “Use of colostrinin, constituent peptides thereof, and analogs thereof to promote neuronal cell differentiation” (Board of Regents, The University of Texas System, priority 1999, dated 2005).
Entries after “also recorded” stand apart in the source; their conditions may differ.

System: medullary pheochromocytoma (PC12) cells
Experiment: Effect on morphology (differentiation) of PC12 cells
Format: cell-based
Details: for 1% FBS (cell differentiation) / 10% FBS (cell differentiation): six days after treatment; for Cell morphology: morphologies seen after treatment (list per substance, not tied to one concentration)
Method: Cells: PC12 cell line derived from medullary pheochromocytoma cells were used to undertake studies described bellow. PC 12 cells were obtained from the American Type Culture Collection and maintained in RPMI-1640 supplemented with 10% fetal bovine serum (HYCLONE Inc), penicillin (100 U/ml) and streptomycin (100 μg/ml).
Methods: To evaluate the effect of colostrum, colostrinin and its component peptides on cell differentiation 3×10^4 logarithmically replicating (70% confluence) PC12 cells were seeded in 24× well plates and cells were allowed to adhere and grow for 24 hours. Serum containing media were aspirated and replaced for serum-free RPMI containing appropriate amount of antibiotics. In four parallel, increasing concentrations (0.1, 1, 10 and 100 μg per ml) of colostrum, colostrinin and its component peptides were added directly into the media and incubated at 37° C. As a positive control, nerve growth factor (NGF) 7S (Gibco-BRL) was used at 100 ng per ml concentration (Chao, Cell, 69, 995-997 (1992); and Marshall et al., Cell 80, 179-185 (1995)). Phorbol 12-myristate 13-acetate (TPA: 10 ng per mil) was used as a negative control. Eight hours later the media were changed and RPMI-1640 was added containing 1% or 10% fetal bovine serum. The cultures were microscopically investigated 2nd, 4th and 6th days after treatment. Six days after treatment cells were fixed with paraformaldehyde (4%) and stained with 0.01% crystal violet solution. Excess of dyes were removed by ethanol washing. The final evaluation took place using a microscopy (Axiophot2 Zeiss Inc., Germany).

## MPQNFYKLPQM [SEQ ID NO:6]
0.1 μg/ml
  1% FBS (cell differentiation): − (− = ≦0.01% (back-ground))
  10% FBS (cell differentiation): − (− = ≦0.01% (back-ground))
1.0 μg/ml
  1% FBS (cell differentiation): − (− = ≦0.01% (back-ground))
10 μg/ml
  1% FBS (cell differentiation): − (− = ≦0.01% (back-ground))
  10% FBS (cell differentiation): + (+ = 1%)
100 μg/ml
  1% FBS (cell differentiation): − (− = ≦0.01% (back-ground))
  10% FBS (cell differentiation): + (+ = 1%)
  Cell morphology: fibroblast-like; also recorded: epitheloid

## VESYVPLFP [SEQ ID NO:31]
1.0 μg/ml
  1% FBS (cell differentiation): − (− = ≦0.01% (back-ground))
10 μg/ml
  1% FBS (cell differentiation): − (− = ≦0.01% (back-ground))
0.1 μg/ml
  10% FBS (cell differentiation): − (− = ≦0.01% (back-ground))
  Cell morphology: fibroblast-like; also recorded: neuron-like

## LFFFLPVVNVLP [SEQ ID NO:4]
0.1 μg/ml
  1% FBS (cell differentiation): − (− = ≦0.01% (back-ground))
  10% FBS (cell differentiation): − (− = ≦0.01% (back-ground))
1.0 μg/ml
  1% FBS (cell differentiation): − (− = ≦0.01% (back-ground))
  10% FBS (cell differentiation): + (+ = 1%)
10 μg/ml
  1% FBS (cell differentiation): − (− = ≦0.01% (back-ground))
  10% FBS (cell differentiation): ++ (++ = 1-5%)
100 μg/ml
  1% FBS (cell differentiation): − (− = ≦0.01% (back-ground))
  10% FBS (cell differentiation): ++ (++ = 1-5%)
  Cell morphology: fibroblast-like; also recorded: epitheloid; also recorded: neuron-like

## LKPFPKLKVEVFPFP [SEQ ID NO:8]
0.1 μg/ml
  1% FBS (cell differentiation): − (− = ≦0.01% (back-ground))
  10% FBS (cell differentiation): − (− = ≦0.01% (back-ground))
1.0 μg/ml
  1% FBS (cell differentiation): − (− = ≦0.01% (back-ground))
  10% FBS (cell differentiation): ++ (++ = 1-5%)
10 μg/ml
  1% FBS (cell differentiation): − (− = ≦0.01% (back-ground))
  10% FBS (cell differentiation): + (+ = 1%)
100 μg/ml
  1% FBS (cell differentiation): − (− = ≦0.01% (back-ground))
  10% FBS (cell differentiation): − (− = ≦0.01% (back-ground))
  Cell morphology: fibroblast-like; also recorded: neuron-like

## DLEMPVLPVEPFPFV [SEQ ID NO:5]
0.1 μg/ml
  1% FBS (cell differentiation): − (− = ≦0.01% (back-ground))
  10% FBS (cell differentiation): − (− = ≦0.01% (back-ground))
1.0 μg/ml
  1% FBS (cell differentiation): − (− = ≦0.01% (back-ground))
  10% FBS (cell differentiation): − (− = ≦0.01% (back-ground))
10 μg/ml
  1% FBS (cell differentiation): − (− = ≦0.01% (back-ground))
100 μg/ml
  1% FBS (cell differentiation): − (− = ≦0.01% (back-ground))
  10% FBS (cell differentiation): + (+ = 1%)
  Cell morphology: fibroblast-like; also recorded: epitheloid; also recorded: neuron-like

## MQPPPLP [SEQ ID NO:1]
0.1 μg/ml
  1% FBS (cell differentiation): − (− = ≦0.01% (back-ground))
1.0 μg/ml
  1% FBS (cell differentiation): − (− = ≦0.01% (back-ground))
  10% FBS (cell differentiation): + (+ = 1%)
10 μg/ml
  1% FBS (cell differentiation): − (− = ≦0.01% (back-ground))
  10% FBS (cell differentiation): ++ (++ = 1-5%)
100 μg/ml
  1% FBS (cell differentiation): − (− = ≦0.01% (back-ground))
  Cell morphology: epitheloid; also recorded: neuron-like

## CCCCCCCCCCCCCC(=O)O[C@@H]1[C@@H](C)[C@@]2(O)[C@@H](C=C(CO)C[C@]3(O)C(=O)C(C)=C[C@@H]23)[C@@H]2C(C)(C)[C@]12OC(C)=O [TPA, Phorbol 12-myristate 13-acetate, reference compound]
  Cell morphology: rounded

## DQPPDVEKPDLQPFQVQS [SEQ ID NO:3]
0.1 μg/ml
  1% FBS (cell differentiation): − (− = ≦0.01% (back-ground))
  10% FBS (cell differentiation): − (− = ≦0.01% (back-ground))
1.0 μg/ml
  1% FBS (cell differentiation): − (− = ≦0.01% (back-ground))
10 μg/ml
  1% FBS (cell differentiation): − (− = ≦0.01% (back-ground))
  10% FBS (cell differentiation): + (+ = 1%)
100 μg/ml
  1% FBS (cell differentiation): − (− = ≦0.01% (back-ground))
  10% FBS (cell differentiation): + (+ = 1%)
  Cell morphology: fibroblast-like; also recorded: neuron-like

## VLEMKFPPPPQETVT [SEQ ID NO:7]
0.1 μg/ml
  1% FBS (cell differentiation): − (− = ≦0.01% (back-ground))
  10% FBS (cell differentiation): − (− = ≦0.01% (back-ground))
1.0 μg/ml
  1% FBS (cell differentiation): − (− = ≦0.01% (back-ground))
  10% FBS (cell differentiation): + (+ = 1%)
10 μg/ml
  1% FBS (cell differentiation): − (− = ≦0.01% (back-ground))
  10% FBS (cell differentiation): + (+ = 1%)
100 μg/ml
  1% FBS (cell differentiation): − (− = ≦0.01% (back-ground))
  Cell morphology: fibroblast-like; also recorded: neuron-like

## LQTPQPLLQVMMEPQGD [SEQ ID NO:2]
0.1 μg/ml
  1% FBS (cell differentiation): − (− = ≦0.01% (back-ground))
1.0 μg/ml
  1% FBS (cell differentiation): − (− = ≦0.01% (back-ground))
  10% FBS (cell differentiation): ++ (++ = 1-5%)
10 μg/ml
  1% FBS (cell differentiation): + (+ = 1%)
  10% FBS (cell differentiation): ++ (++ = 1-5%)
100 μg/ml
  1% FBS (cell differentiation): − (− = ≦0.01% (back-ground))
  10% FBS (cell differentiation): + (+ = 1%)
  Cell morphology: fibroblast-like; also recorded: neuron-like
